These results are taken from ChEMBL document CHEMBL1139192, “Novel bis(indolyl)maleimide pyridinophanes that are potent, selective inhibitors of glycogen synthase kinase-3” (Bioorg Med Chem Lett, 2007).

As usually defined, the IC50 is the concentration that inhibits the measured activity by half.

Test [1] has as its target Insulin-like growth factor 1 receptor (Homo sapiens) (UniProt P08069). The experiment in a line: Residual activity of human IGF1R at 1 uM relative to control.
The target of test [2] is Mitogen-activated protein kinase 10 (Homo sapiens) (UniProt P53779). The experiment in a line: Inhibition of human JNK3 at 1 uM relative to control; values are per cent of control.
In test [3] the target is Tyrosine-protein kinase Fyn (Homo sapiens) (UniProt P06241). Briefly: Inhibition of human Fyn at 1 uM relative to control; values are per cent of control.
Test [4] deals with Casein kinase II (Homo sapiens) (UniProt P67870+P68400+P19784). Briefly: Inhibition of human CK2 at 1 uM relative to control; values are per cent of control.
The target in test [5] is T1, Protein kinase C epsilon type (Homo sapiens) (UniProt Q02156).
T1 sequence (whole entry): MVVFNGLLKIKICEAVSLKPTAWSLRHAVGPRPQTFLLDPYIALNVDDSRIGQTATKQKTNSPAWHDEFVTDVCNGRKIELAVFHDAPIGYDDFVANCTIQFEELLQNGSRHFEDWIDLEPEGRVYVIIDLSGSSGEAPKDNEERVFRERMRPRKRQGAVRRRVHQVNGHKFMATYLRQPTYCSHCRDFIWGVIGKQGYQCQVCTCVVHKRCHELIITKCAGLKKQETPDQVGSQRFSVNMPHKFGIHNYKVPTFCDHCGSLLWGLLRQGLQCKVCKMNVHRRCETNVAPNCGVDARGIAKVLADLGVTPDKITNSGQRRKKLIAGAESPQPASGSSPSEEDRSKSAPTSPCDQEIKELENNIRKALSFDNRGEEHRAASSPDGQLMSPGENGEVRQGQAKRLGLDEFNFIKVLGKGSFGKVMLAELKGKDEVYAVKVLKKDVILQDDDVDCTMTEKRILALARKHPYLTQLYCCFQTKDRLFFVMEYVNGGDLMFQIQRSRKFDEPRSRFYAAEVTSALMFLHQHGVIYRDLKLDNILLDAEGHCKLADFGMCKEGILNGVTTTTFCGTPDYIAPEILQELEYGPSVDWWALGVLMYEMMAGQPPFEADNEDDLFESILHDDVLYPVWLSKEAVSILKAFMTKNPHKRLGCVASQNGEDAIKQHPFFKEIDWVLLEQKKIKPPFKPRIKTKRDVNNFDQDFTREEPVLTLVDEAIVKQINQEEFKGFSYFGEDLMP
The experiment in a line: Residual activity of human PKCepsilon at 1 uM relative to control.

In test [6] the target is T2, Protein kinase C iota type (Homo sapiens) (UniProt P41743).
T2 sequence (whole entry): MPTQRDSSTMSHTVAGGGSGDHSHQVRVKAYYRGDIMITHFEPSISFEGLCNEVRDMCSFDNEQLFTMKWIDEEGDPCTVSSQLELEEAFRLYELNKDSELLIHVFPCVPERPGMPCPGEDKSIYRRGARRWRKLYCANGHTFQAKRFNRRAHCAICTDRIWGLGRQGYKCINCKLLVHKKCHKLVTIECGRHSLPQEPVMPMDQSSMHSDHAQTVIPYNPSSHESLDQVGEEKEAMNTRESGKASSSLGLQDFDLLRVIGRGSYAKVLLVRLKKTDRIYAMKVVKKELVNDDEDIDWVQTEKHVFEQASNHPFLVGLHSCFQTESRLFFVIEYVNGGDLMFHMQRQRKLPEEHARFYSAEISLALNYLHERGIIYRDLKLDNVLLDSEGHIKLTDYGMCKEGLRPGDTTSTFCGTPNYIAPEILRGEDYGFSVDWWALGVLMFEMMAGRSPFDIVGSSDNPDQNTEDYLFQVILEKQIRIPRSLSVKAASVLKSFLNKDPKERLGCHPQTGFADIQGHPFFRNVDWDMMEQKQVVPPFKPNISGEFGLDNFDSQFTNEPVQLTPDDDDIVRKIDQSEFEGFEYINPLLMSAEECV
Briefly: Inhibition of human PKCiota at 1 uM relative to control; values are per cent of control.

The target in test [7] is Glycogen synthase kinase-3 beta (Homo sapiens, UniProt P49841). Briefly: Inhibition of human recombinant GSK3-beta.
Test [8] addresses Serine/threonine-protein kinase Chk2 (Homo sapiens) (UniProt O96017). Briefly: Inhibition of human CHK2 at 1 uM relative to control; values are per cent of control.
For test [9], the target named is T3, Ribosomal protein S6 kinase alpha-5 (Homo sapiens, UniProt O75582). The experiment in a line: Inhibition of human MSK1 at 1 uM relative to control; values are per cent of control.
Target sequence in this assay (O75582 whole entry, looked up): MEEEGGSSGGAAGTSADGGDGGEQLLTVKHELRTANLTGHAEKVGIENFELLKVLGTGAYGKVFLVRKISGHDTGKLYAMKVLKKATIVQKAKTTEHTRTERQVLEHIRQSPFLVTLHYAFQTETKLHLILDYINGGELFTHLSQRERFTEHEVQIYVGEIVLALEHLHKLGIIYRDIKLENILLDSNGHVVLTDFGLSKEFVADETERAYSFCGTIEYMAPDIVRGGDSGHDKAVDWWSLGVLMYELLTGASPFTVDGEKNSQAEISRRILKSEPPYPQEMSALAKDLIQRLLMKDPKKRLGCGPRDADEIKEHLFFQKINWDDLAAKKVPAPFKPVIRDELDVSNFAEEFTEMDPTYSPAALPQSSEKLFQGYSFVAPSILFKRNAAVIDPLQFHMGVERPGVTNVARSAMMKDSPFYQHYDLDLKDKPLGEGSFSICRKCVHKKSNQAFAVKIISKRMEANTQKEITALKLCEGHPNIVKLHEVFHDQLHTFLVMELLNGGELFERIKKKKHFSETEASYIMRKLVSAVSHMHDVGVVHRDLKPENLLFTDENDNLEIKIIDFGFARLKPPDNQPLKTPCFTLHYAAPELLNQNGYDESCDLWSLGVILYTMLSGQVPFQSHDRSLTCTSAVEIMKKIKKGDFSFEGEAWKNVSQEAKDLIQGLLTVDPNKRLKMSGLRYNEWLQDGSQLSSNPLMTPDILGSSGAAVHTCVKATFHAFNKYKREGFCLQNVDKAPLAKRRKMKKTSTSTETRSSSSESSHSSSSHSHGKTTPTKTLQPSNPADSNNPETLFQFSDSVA
Test [10] has as its target Mitogen-activated protein kinase 1 (Homo sapiens) (UniProt P28482). Briefly: Inhibition of MAPK1 at 1 uM relative to control; values are per cent of control.
Test [11] addresses Ribosomal protein S6 kinase alpha-1 (Rattus norvegicus) (UniProt Q63531). Briefly: Inhibition of rat Rsk1 at 1 uM relative to control; values are per cent of control.
The species entered for test [12] is Homo sapiens. The experiment in a line: Residual activity of human CDK6/Cyclin D at 1 uM relative to control.
Test [13] has as its target Tyrosine-protein kinase CSK (Homo sapiens) (UniProt P41240). Briefly: Inhibition of human CSK at 1 uM relative to control; values are per cent of control.
The target of test [14] is Macrophage colony-stimulating factor 1 receptor (Homo sapiens) (UniProt P07333). Briefly: Residual activity of human Fms at 1 uM relative to control.
Test [15] concerns the target T4, Ribosomal protein S6 kinase alpha-1 (Homo sapiens, UniProt Q15418). Briefly: Inhibition of human Rsk1 at 1 uM relative to control; values are per cent of control.
For test [16], the target named is Tyrosine-protein kinase Blk (Mus musculus) (UniProt P16277). Briefly: Inhibition of mouse Blk at 1 uM relative to control; values are per cent of control.
Test [17] deals with T3, Ribosomal protein S6 kinase alpha-5. Briefly: Inhibition of human MSK1.
Target sequence in this assay (O75582 whole entry): as the sequence (O75582 whole entry, looked up) above
Test [18] deals with Cytoplasmic tyrosine-protein kinase BMX (Homo sapiens) (UniProt P51813). The experiment in a line: Inhibition of human BMX kinase at 1 uM relative to control; values are per cent of control.
In test [19] the target is BDNF/NT-3 growth factors receptor (Homo sapiens, UniProt Q16620). Briefly: Inhibition of human TrkB at 1 uM relative to control.
Test [20] addresses T4, Ribosomal protein S6 kinase alpha-1. The experiment in a line: Inhibition of human Rsk1.
Test [21] concerns the target Protein kinase C theta type (Homo sapiens, UniProt Q04759). Briefly: Inhibition of human PKCtheta.
Test [22] is filed under the species Homo sapiens. The experiment in a line: Selectivity for human recombinant GSK3-beta over human recombinant PKCbeta2.

The source made the active and inactive calls. The rule behind the calls is not given here.

T4 sequence (Q15418 whole entry): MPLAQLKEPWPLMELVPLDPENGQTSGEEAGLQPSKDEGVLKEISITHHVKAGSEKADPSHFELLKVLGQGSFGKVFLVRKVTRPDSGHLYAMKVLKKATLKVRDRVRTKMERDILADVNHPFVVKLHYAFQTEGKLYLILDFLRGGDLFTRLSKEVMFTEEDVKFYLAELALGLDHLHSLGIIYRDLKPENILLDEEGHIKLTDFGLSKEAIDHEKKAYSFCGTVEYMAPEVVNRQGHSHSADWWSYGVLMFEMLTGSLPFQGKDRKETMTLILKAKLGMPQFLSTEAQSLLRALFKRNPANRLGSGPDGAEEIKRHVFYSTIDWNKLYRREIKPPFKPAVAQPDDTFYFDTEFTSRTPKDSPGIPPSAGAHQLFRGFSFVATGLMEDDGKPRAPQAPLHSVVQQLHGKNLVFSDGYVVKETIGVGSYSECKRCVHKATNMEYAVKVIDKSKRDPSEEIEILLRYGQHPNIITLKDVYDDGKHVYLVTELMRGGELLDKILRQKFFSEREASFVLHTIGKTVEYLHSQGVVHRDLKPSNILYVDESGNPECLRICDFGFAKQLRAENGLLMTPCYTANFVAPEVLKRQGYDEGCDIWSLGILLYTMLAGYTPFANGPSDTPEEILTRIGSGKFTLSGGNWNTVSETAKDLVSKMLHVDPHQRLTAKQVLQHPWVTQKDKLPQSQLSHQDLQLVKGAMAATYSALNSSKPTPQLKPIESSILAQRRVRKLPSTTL
Sequence of Mitogen-activated protein kinase 1 (Homo sapiens) (P28482 whole entry): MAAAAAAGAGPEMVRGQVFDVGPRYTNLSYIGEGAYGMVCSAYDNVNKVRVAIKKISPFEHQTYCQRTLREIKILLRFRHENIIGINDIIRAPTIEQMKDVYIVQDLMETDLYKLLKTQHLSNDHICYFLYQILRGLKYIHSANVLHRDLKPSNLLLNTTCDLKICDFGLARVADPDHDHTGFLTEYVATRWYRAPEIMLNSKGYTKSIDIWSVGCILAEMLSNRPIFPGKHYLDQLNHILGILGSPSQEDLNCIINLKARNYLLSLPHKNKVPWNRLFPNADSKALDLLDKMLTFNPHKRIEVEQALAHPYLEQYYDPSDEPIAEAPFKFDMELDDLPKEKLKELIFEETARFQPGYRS
Sequence of Serine/threonine-protein kinase Chk2 (Homo sapiens) (O96017 whole entry): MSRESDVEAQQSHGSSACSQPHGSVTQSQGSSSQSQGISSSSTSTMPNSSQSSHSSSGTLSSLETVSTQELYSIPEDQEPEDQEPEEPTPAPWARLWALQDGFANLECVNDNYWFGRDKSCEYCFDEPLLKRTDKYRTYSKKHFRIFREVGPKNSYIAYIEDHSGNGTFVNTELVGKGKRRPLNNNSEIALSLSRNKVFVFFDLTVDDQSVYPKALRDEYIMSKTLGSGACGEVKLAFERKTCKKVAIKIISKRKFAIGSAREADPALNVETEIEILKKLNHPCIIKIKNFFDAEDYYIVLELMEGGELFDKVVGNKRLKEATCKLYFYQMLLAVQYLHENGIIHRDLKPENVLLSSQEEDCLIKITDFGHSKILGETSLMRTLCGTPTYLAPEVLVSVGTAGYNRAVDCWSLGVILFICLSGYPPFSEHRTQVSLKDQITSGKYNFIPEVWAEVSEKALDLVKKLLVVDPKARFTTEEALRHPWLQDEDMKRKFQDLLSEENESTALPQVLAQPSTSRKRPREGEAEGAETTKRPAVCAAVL
Sequence of Tyrosine-protein kinase Blk (Mus musculus) (P16277 whole entry): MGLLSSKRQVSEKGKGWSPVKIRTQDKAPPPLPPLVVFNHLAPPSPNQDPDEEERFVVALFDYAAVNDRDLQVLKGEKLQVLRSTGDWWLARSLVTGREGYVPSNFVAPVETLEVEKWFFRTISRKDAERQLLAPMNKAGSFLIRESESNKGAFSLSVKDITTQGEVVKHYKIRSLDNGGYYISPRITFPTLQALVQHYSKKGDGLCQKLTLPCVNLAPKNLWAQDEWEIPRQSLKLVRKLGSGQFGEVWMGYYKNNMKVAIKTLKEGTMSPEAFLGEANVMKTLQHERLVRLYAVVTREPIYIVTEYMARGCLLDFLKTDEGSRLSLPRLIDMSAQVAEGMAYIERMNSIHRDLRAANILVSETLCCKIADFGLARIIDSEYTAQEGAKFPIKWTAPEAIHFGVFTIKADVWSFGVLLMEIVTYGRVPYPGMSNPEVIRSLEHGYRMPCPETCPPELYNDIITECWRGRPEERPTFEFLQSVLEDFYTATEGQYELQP
Sequence of Macrophage colony-stimulating factor 1 receptor (Homo sapiens) (P07333 whole entry): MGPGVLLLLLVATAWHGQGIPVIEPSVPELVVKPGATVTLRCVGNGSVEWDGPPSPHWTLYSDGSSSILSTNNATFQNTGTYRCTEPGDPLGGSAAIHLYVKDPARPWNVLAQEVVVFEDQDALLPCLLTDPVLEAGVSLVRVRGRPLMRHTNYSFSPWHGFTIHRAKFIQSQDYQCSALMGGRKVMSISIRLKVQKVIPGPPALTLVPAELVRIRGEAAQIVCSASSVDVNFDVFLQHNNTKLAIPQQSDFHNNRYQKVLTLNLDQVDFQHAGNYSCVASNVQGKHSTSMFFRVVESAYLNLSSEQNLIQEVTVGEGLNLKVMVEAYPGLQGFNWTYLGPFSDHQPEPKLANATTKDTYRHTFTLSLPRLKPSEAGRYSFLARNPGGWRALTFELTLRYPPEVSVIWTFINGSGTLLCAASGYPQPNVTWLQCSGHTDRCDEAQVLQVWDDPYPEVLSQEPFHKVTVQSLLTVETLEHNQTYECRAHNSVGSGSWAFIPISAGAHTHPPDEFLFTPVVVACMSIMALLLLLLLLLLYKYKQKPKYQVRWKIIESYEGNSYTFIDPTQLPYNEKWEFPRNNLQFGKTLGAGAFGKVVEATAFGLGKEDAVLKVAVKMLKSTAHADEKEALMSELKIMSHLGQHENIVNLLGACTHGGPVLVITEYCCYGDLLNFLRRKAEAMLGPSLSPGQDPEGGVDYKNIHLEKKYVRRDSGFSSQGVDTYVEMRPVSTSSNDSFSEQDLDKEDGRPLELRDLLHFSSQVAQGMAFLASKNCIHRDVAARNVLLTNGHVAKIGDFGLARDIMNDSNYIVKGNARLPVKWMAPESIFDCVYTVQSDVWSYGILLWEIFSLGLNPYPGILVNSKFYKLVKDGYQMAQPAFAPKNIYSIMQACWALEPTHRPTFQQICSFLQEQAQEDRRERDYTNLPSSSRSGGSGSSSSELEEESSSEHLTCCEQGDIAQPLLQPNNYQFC
Sequence of Glycogen synthase kinase-3 beta (P49841 whole entry): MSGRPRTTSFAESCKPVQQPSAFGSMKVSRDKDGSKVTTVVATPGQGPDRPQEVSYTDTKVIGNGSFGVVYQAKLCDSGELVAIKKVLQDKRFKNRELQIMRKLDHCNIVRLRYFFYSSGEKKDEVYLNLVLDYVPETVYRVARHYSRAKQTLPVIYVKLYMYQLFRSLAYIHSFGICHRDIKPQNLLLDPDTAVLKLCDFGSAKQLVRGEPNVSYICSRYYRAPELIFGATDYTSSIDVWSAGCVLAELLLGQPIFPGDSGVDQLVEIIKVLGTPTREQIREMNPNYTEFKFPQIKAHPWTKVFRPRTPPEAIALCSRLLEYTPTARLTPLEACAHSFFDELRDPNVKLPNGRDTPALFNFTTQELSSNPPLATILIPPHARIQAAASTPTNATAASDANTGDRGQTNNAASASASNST
Sequence of Tyrosine-protein kinase CSK (Homo sapiens) (P41240 2-450 limits assumed): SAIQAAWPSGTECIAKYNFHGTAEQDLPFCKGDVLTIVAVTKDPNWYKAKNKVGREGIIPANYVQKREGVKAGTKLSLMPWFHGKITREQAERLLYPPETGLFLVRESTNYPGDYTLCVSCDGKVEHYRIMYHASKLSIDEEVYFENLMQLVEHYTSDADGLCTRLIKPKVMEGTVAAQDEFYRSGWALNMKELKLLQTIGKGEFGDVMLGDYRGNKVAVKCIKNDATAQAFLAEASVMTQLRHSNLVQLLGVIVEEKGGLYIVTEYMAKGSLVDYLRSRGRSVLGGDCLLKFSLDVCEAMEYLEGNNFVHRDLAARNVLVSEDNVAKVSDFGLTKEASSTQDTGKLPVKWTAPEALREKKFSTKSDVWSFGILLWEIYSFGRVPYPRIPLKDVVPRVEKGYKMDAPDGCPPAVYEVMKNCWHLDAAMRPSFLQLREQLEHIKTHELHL

As to `O=C1NC(=O)C2=C1c1cn(c3ccccc13)CCCc1ccc(c(N3CCCC3)n1)CCCn1cc2c2ccccc21`, the residual activity in test [1] is 106%; in test [2], 102%; in test [3], 103%; in test [4], 113%; in [5], 97%; in [6] it was 97%. In addition, the residual activity in [8] came out at 91%; in test [9] it was 104%; in test [10], 110%; in [11], 67%; in the test listed under Homo sapiens [12], 92%; in [13], 129%. The residual activity came to 106% in test [14], 85% in test [15] and 91% in test [16]. For the same molecule, the IC50 in test [7] was determined as 30 nM.

As to `O=C1NC(=O)C2=C1c1cn(c3ccccc13)CCCc1cc(nc(N3CCCC3)c1)CCCn1cc2c2ccccc21`, the residual activity in test [1] was 42%; in test [2], 103%; in test [3], 106%; in test [4] it was 108%; in [5] it was 93%; in test [6], 102%. Further, the residual activity was 84% in test [8]; 38% in test [9]; 99% in [10]; 5% in test [11]; 82% in the test listed under Homo sapiens [12]; 125% in test [13]. Moreover, the residual activity in [14] was determined as 99%; in [15], 15%; in [16] it was 74%. The IC50 in test [7] turned out to be 11 nM.

Consider `CN(C)c1nc2ccc1CCCn1cc(c3ccccc31)C1=C(C(=O)NC1=O)c1cn(c3ccccc13)CC2`, for which the residual activity in test [1] came to 84%; in test [2], 96%; in [3], 103%; in [18] it was 101%; in [4], 107%; in test [5], 72%. For the same molecule, the residual activity in test [6] came out at 85%; in [8] it was 91%; in [9], 36%; in test [10], 97%; in test [11], 37%; in the test filed under Homo sapiens [12], 86%. Also, the residual activity came to 95% in test [13], 94% in test [14], 39% in test [15] and 109% in test [16]. The IC50 was 510 nM in test [17], 1900 nM in [20], 3 nM in [7] and 98 nM in test [21]. Besides, in test [19], the outcome was inactive. In the test listed under Homo sapiens [22], the Ratio IC50 was 460.

Take `CN(C)c1cc2cc(n1)CCCn1cc(c3ccccc31)C1=C(C(=O)NC1=O)c1cn(c3ccccc13)CCC2`: the residual activity turned out to be 37% in test [1]; 107% in test [2]; 106% in test [3]; 111% in [4]; 83% in test [5]; 109% in test [6]. In addition, the residual activity is 94% in test [8]; 58% in [9]; 86% in test [10]; 7% in test [11]; 74% in the test filed under Homo sapiens [12]; 133% in [13]. For the same molecule, the residual activity in [14] worked out at 101%; in test [15], 15%; in test [16], 70%. In addition, the IC50 in [7] was 7 nM.
